Results as given in ChEMBL document CHEMBL1201862, “PubChem BioAssay data set” (2004).
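Step 1: Grow cells in 96-well plates. Step 2: Expose to compound for 48 hours at 5 concentrations. Step 3: Interpolate endpoints linearly; if unreached, use highest concentration. GI50: concentration for 50% inhibition of growth.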 Activity calls are given as the source filed them. Cut-off read from the data, not from the text of the source: active = GI50 up to about 1.1 µM and inactive = higher.

Experiments:
Experiment in all cases: inhibition of tumour cell growth, NCI panel, 48 h
ACHN = system: ACHN
CCRF-CEM = system: CCRF-CEM
DLD-1 = system: DLD-1
HCT-116 = system: HCT-116
HL-60 = system: HL-60
Hs-578T = system: Hs-578T
IGROV-1 = system: IGROV-1
K562 = system: K562
LXFL 529 = system: LXFL 529
MDA-N = system: MDA-N
NCI-H460 = system: NCI-H460
NCI-H522 = system: NCI-H522
SF-295 = system: SF-295
SF-539 = system: SF-539
SNB-78 = system: SNB-78
SW-620 = system: SW-620
TK-10 = system: TK-10
U-251 = system: U-251
UACC-257 = system: UACC-257
UACC-62 = system: UACC-62

| SMILES | GI50 (ACHN) | GI50 (CCRF-CEM) | GI50 (DLD-1) | GI50 (HCT-116) | GI50 (HL-60) | GI50 (Hs-578T) | GI50 (IGROV-1) | GI50 (K562) | GI50 (LXFL 529) | GI50 (MDA-N) | GI50 (NCI-H460) | GI50 (NCI-H522) | GI50 (SF-295) | GI50 (SF-539) | GI50 (SNB-78) | GI50 (SW-620) | GI50 (TK-10) | GI50 (U-251) | GI50 (UACC-257) | GI50 (UACC-62) |
| --- | --- | --- | --- | --- | --- | --- | --- | --- | --- | --- | --- | --- | --- | --- | --- | --- | --- | --- | --- | --- |
| CCCCCCCCCCCCCCCCCCOP(=O)([O-])OC1CC[N+](C)(C)CC1 [PERIFOSINE] | 12.4 µM (inactive) | 0.714 µM (active) | 10.4 µM (inactive) | 7.94 µM (inactive) | 1.19 µM (inactive) | 13 µM (inactive) | 2.18 µM (inactive) | 16.4 µM (inactive) | 4.03 µM (inactive) | 12.4 µM (inactive) | 1.75 µM (inactive) | 2.97 µM (inactive) | 4.98 µM (inactive) | 15.6 µM (inactive) | 23.4 µM (inactive) | 8.05 µM (inactive) | 2.04 µM (inactive) | 12.4 µM (inactive) | 19.8 µM (inactive) | 8.39 µM (inactive) |
| N=c1oc2cc(O)c(O)cc2cc1C(N)=O | > 100 µM (inactive) | 33 µM (inactive) | > 100 µM (inactive) | > 100 µM (inactive) | > 10 µM (inactive) | – | > 100 µM (inactive) | > 100 µM (inactive) | > 100 µM (inactive) | – | > 100 µM (inactive) | 45.1 µM (inactive) | > 100 µM (inactive) | > 100 µM (inactive) | > 100 µM (inactive) | > 100 µM (inactive) | > 100 µM (inactive) | > 100 µM (inactive) | > 100 µM (inactive) | > 100 µM (inactive) |
| O=C(/C=C/c1ccccc1O)c1cccs1 | > 100 µM (inactive) | > 100 µM (inactive) | > 100 µM (inactive) | > 100 µM (inactive) | > 100 µM (inactive) | – | > 100 µM (inactive) | > 100 µM (inactive) | > 100 µM (inactive) | – | > 100 µM (inactive) | > 100 µM (inactive) | > 100 µM (inactive) | > 100 µM (inactive) | > 100 µM (inactive) | > 100 µM (inactive) | > 100 µM (inactive) | > 100 µM (inactive) | > 100 µM (inactive) | > 100 µM (inactive) |
| Cc1nc(N)nn1C1OCC(O)C(O)C1O (stereo not drawn) | > 100 µM (inactive) | > 100 µM (inactive) | > 100 µM (inactive) | > 100 µM (inactive) | > 100 µM (inactive) | – | > 100 µM (inactive) | > 100 µM (inactive) | > 100 µM (inactive) | – | > 100 µM (inactive) | > 100 µM (inactive) | > 100 µM (inactive) | > 100 µM (inactive) | > 100 µM (inactive) | > 100 µM (inactive) | > 100 µM (inactive) | > 100 µM (inactive) | > 100 µM (inactive) | > 100 µM (inactive) |
| NC(=O)c1csc(CCCCCCc2nc(C(N)=O)cs2)n1 | > 100 µM (inactive) | > 43.5 µM (inactive) | > 73.6 µM (inactive) | > 56.2 µM (inactive) | > 100 µM (inactive) | – | > 100 µM (inactive) | > 39.1 µM (inactive) | > 100 µM (inactive) | – | > 100 µM (inactive) | > 100 µM (inactive) | > 100 µM (inactive) | > 100 µM (inactive) | > 100 µM (inactive) | > 40.3 µM (inactive) | > 100 µM (inactive) | > 42.5 µM (inactive) | > 62.5 µM (inactive) | > 100 µM (inactive) |
| O=C1NN=C(c2ccc([N+](=O)[O-])cc2)C1n1nc(-c2ccccc2)c2ccccc2c1=O (stereo not drawn) | > 100 µM (inactive) | > 65.5 µM (inactive) | > 50.7 µM (inactive) | > 63.8 µM (inactive) | > 45.6 µM (inactive) | – | > 100 µM (inactive) | > 54.5 µM (inactive) | > 100 µM (inactive) | – | > 92.5 µM (inactive) | > 100 µM (inactive) | > 100 µM (inactive) | > 100 µM (inactive) | > 100 µM (inactive) | > 34.2 µM (inactive) | > 100 µM (inactive) | > 95.7 µM (inactive) | > 100 µM (inactive) | > 100 µM (inactive) |
| CN(C)/C(=N\C#N)N(Cc1ccccc1)Cc1ccccc1 | > 100 µM (inactive) | 44.2 µM (inactive) | 43.2 µM (inactive) | 53.5 µM (inactive) | 44.3 µM (inactive) | – | > 100 µM (inactive) | 17.9 µM (inactive) | 56.5 µM (inactive) | – | 17.7 µM (inactive) | 24.9 µM (inactive) | 68.4 µM (inactive) | > 100 µM (inactive) | > 100 µM (inactive) | 17.9 µM (inactive) | > 100 µM (inactive) | > 100 µM (inactive) | > 100 µM (inactive) | 62.4 µM (inactive) |
| C[N+](C)(C)CC1CCc2ccccc2C1=O (stereo not drawn) | 7.55 µM (inactive) | 2.55 µM (inactive) | 4.86 µM (inactive) | 5.55 µM (inactive) | 2.52 µM (inactive) | 13.7 µM (inactive) | 11.6 µM (inactive) | 1.79 µM (inactive) | 2.57 µM (inactive) | 5.86 µM (inactive) | 19.7 µM (inactive) | 0.0809 µM (active) | 34.1 µM (inactive) | 15.8 µM (inactive) | 23.4 µM (inactive) | 1.68 µM (inactive) | 16.1 µM (inactive) | 5.64 µM (inactive) | 12.2 µM (inactive) | 5.42 µM (inactive) |
